Results as given in EP0428486B1, “Polymyxin conjugates” (SANDOZ LTD., priority 1989, dated 1991).

Legend:
non-sensitized mice = experiment: PMB (native and conjugated forms) induced lethality, i.p.; format: in vivo, Male CB57BL/c mice; settings: intraperitoneal injection, lethality monitored for 7 days
Protocol: (§1) As used herein the following definitions apply: • LD₀ is the highest non-toxic dose of PMB or its conjugate; • LD₁₀₀ is the dose of PMB or its conjugated form which results in 90-100% lethality when injected into a normal test animal; • PD₁₀₀ is the dose of polymyxin B or its conjugated form which, when injected into a hypersensitized test animal, results in at least 95 % survival; • Therapeutic Index (TI) is calculated by dividing LD₁₀₀ by PD₁₀₀.
PMB (native and conjugated forms) are evaluated for their inherent toxicity in non-sensitized mice. Male CB57BL/c mice (18-22 g, Jackson Labs) are used throughout this study. Animals are given either native PMB or conjugated PMB by intraperitoneal injection (0.5 ml/animal) and lethality is monitored for 7 days. The LD₁₀₀ is determined by varying the dose of PMB (native and conjugated forms) that result in 100 % lethality. From 10 to 20 animals are used for each dose.

endotoxin (0111B₄) = experiment: PMB anti-endotoxin evaluation (endotoxin-induced lethality in galactosamine-hypersensitized mice), i.p.; format: in vivo, Male CB57BL/c mice
Protocol: as §1
Male CB57BL/c mice (18-22 g, Jackson Labs) are used throughout this study. Animals are given endotoxin (0111B₄ from List Biologicals, Palo Alto, CA, USA) and galactosamine to hypersensitize, as described in Galanos et al., Proc. Natl. Acad. Sci. USA 76 (1979) 5939. The endotoxin and galactosamine (320 mg/kg) are injected intraperitoneally in 0.5 ml pyrogen-free isotonic saline per animal between 13:00 and 15:00 to avoid diurnal variation. From a dose-response study, it is determined that 0.01 mg/kg endotoxin produces 85-95 % lethality. Animals are observed each day for 6 days after injection.
PMB (native and conjugated forms) are evaluated for their ability to neutralize endotoxin by either pre-mixing with endotoxin for 60 minutes before i.p. injection or by coadministration of the substances as a single i.p. injection. […]

[1] = Toxicity (lethality) after i.v. injection, Example 4; format: in vivo
Protocol: The ultra-pure PMB-conjugate has an LD₀ of > 100 mg/kg and it has not been possible to establish an LD₁₀₀ due to its inherent non-toxicity. Comparisons in the table below are made between the highest non-toxic dose of PMB (native or conjugated): […]

E.coli 0111B4 endotoxin = experiment: Endotoxin-induced lethality test, i.v. treatment, Example 4; format: in vivo; settings: i.v. injection 1-3 minutes before an LD90 i.p. injection of E.coli 0111B4 endotoxin (0.5 µg/kg)

## polymyxin B [Native PMB]
non-sensitized mice
  LD₁₀₀: 25 mg/kg
Endotoxin (0111B₄); PMB or conjugate allowed to react with the endotoxin for 60 min before i.p. injection
  PD₁₀₀: 2 mg/kg
Endotoxin (0111B₄); i.p., hypersensitized mice (galactosamine 320 mg/kg, endotoxin 0.01 mg/kg), pre-mixing or coadministration not stated for these rows
  PD₁₀₀: 2 mg/kg
[1]; i.v.
  LD₁₀₀ i.v.: 9.5 mg/kg
[1]; i.v. injection, lethality monitored over 7 days, highest non-toxic dose
  LD₀: 5 mg/kg
E.coli 0111B4 endotoxin
  PD₁₀₀: 0.1 mg/kg
